Assay results reported in patent publication US12264134B2 (Merck Sharp & Dohme LLC, priority 2018, dated 2025).

The compounds below were run against IDO1 (Homo sapiens, UniProt P14902) (assay: IDO1 Cellular Assay in HeLa Cells Stimulated with IFNγ). Settings: read-out: HeLa Cell Potency, IC50.
Assay type: cell-based

IDO1, sequence (P14902 whole entry): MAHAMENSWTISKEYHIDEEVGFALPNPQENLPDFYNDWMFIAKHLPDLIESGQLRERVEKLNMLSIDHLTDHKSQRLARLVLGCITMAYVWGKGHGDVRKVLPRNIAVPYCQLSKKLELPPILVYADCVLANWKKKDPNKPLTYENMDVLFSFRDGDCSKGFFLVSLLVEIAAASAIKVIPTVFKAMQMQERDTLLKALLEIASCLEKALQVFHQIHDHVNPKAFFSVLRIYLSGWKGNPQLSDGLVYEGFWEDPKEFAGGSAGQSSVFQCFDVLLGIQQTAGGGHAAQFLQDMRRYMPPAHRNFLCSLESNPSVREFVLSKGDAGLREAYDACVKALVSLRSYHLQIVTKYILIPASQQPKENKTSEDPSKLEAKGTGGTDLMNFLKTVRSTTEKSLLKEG

| Compound | IC50 |
| --- | --- |
| Cc1cccc(N2CCN(C(=O)Cn3nc(C(=O)N4CC[C@@H](N)[C@@H](C)C4)c4c3CCC4)CC2)c1C [Example 198, 2-{3-[(3S,4R)-4-amino-3-methylpiperidine-1-carbonyl]-5,6-dihydrocyclopenta[c]pyrazol-1(4H)-yl}-1-[4-(2,3-dimethylphenyl)piperazin-1-yl]ethan-1-one] | 89.6 nM |
| Cc1cccc(N2CCN(C(=O)Cn3nc(C(=O)N4CCC5(CC4)C[C@H](C)OC5=O)c4c3CCC4)CC2)c1C [Example 135, (3S)-8-(1-{2-[4-(2,3-dimethylphenyl)piperazin-1-yl]-2-oxoethyl}-1,4,5,6-tetrahydrocyclopenta[c]pyrazole-3-carbonyl)-3-methyl-2-oxa-8-azaspiro[4.5]decan-1-one] | 38.5 nM |
| Cc1cccc(N2CCN(C(=O)Cn3nc(C(=O)N4CCC5(CC4)CC(=O)N(C)C5)c4c3CCC4)CC2)c1C [Example 121, 8-(1-{2-[4-(2,3-dimethylphenyl)piperazin-1-yl]-2-oxoethyl}-1,4,5,6-tetrahydrocyclopenta[c]pyrazole-3-carbonyl)-2-methyl-2,8-diazaspiro[4.5]decan-3-one] | 17.1 nM |
| Cc1cccc(N2CCN(C(=O)Cn3nc(C(=O)N4CCN(CCO)CC4)c4c3CCC4)CC2)c1C [Example 162, 1-[4-(2,3-dimethylphenyl)piperazin-1-yl]-2-{3-[4-(2-hydroxyethyl)piperazine-1-carbonyl]-5,6-dihydrocyclopenta[c]pyrazol-1(4H)-yl}ethan-1-one] | 10.5 nM |
| Cc1cccc(N2CCN(C(=O)Cn3nc(C(=O)N4CC5CC4CC5O)c4c3CCC4)CC2)c1C (centres unmarked) [Example 96, 1-[4-(2,3-dimethylphenyl)piperazin-1-yl]-2-[3-(5-hydroxy-2-azabicyclo[2.2.1]heptane-2-carbonyl)-5,6-dihydrocyclopenta[c]pyrazol-1(4H)-yl]ethan-1-one] | 13.2 nM |
| O=C(Cn1nc(C(=O)N2CC[C@H](O)[C@H](F)C2)c2c1CCC2)N1CCN(C2CCCc3ccccc32)CC1 (single isomer, unassigned) [Example 426] | 302 nM |
| Cc1cccc(N2CCN(C(=O)Cn3nc(C(=O)N4CCC(NC(N)=O)CC4)c4c3CCC4)CC2)c1C [Example 188, N-[1-(1-{2-[4-(2,3-dimethylphenyl)piperazin-1-yl]-2-oxoethyl}-1,4,5,6-tetrahydrocyclopenta[c]pyrazole-3-carbonyl)piperidin-4-yl]urea] | 9.76 nM |
| Cc1cccc(N2CCN(C(=O)Cn3nc(C(=O)N4CCC(F)(F)[C@H](O)C4)c4c3CCC4)CC2)c1C (single isomer, unassigned) [Example 210, 2-[3-[(3R or 3S)-4,4-difluoro-3-hydroxy-piperidine-1-carbonyl]-5,6-dihydro-4H-cyclopenta[c]pyrazol-1-yl]-1-[4-(2,3-dimethylphenyl)piperazin-1-yl]ethanone] | 63.5 nM |
| Cc1cccc(N2CCN(C(=O)Cn3nc(C(=O)N4CCN(CC(F)F)CC4)c4c3C[C@H]3C[C@@H]43)CC2)c1C [Example 260, 2-{(3bR,4aR)-3-[4-(2,2-difluoroethyl)piperazine-1-carbonyl]-3b,4,4a,5-tetrahydro-1H-cyclopropa[3,4]cyclopenta[1,2-c]pyrazol-1-yl}-1-[4-(2,3-dimethyl-phenyl)piperazin-1-yl]ethan-1-one] | 0.84 nM |
| COc1cccc(N2CCN(C(=O)Cn3nc(C(=O)N4C[C@@H](C)O[C@@H](C)C4)c4c3CCC4)CC2)c1 [Example 29, 2-{3-[(2R,6S)-2,6-dimethylmorpholine-4-carbonyl]-5,6-dihydrocyclopenta[c]pyrazol-1(4H)-yl}-1-[4-(3-methoxyphenyl)piperazin-1-yl]ethan-1-one] | 316 nM |
| O=C(Cn1nc(C(=O)N2CC[C@H](O)[C@H](F)C2)c2c1CCC2)N1CCN(C2CCc3ccccc32)CC1 (single isomer, unassigned) [Example 440] | 2520 nM |
| Cc1cccc(N2CCN(C(=O)Cn3nc(C(=O)N4CCCC4)c4c3CCC(F)(F)C4)CC2)c1C [Example 6, 2-(5,5-difluoro-3-(pyrrolidine-1-carbonyl)-4,5,6,7-tetrahydro-1H-indazol-1-yl)-1-(4-(2,3-dimethylphenyl)piperazin-1-yl)ethanone] | 8.13 nM |
| Cc1cccc(N2CCN(C(=O)Cn3nc(C(=O)N4CCCCC4C(C)(C)O)c4c3C[C@H]3C[C@@H]43)CC2)c1C (stereo partly drawn) [Example 271, 1-[4-(2,3-dimethylphenyl)piperazin-1-yl]-2-{(3bR,4aR)-3-[2-(2-hydroxypropan-2-yl)piperidine-1-carbonyl]-3b,4,4a,5-tetrahydro-1H-cyclopropa[3,4]cyclopenta[1,2-c]pyrazol-1-yl}ethan-1-one] | 3.66 nM |
| Cc1cccc(N2CCN(C(=O)Cn3nc(C(=O)N4CCC(O)C(CO)C4)c4c3CCCC4)CC2)c1C (centres unmarked) [Example 452, 1-(4-(2,3-dimethylphenyl)piperazin-1-yl)-2-(3-(4-hydroxy-3-(hydroxymethyl)piperidine-1-carbonyl)-4,5,6,7-tetrahydro-1H-indazol-1-yl) ethanone] | 1.05 nM |
| Cc1cccc(N2CCN(C(=O)Cn3nc(C(=O)N4CCOCC4CO)c4c3C[C@H]3C[C@@H]43)CC2)c1C (stereo partly drawn) [Example 267, 1-[4-(2,3-dimethylphenyl)piperazin-1-yl]-2-{(3bR,4aR)-3-[3-(hydroxymethyl)morpholine-4-carbonyl]-3b,4,4a,5-tetrahydro-1H-cyclopropa[3,4]cyclopenta[1,2-c]pyrazol-1-yl}ethan-1-one] | 7.91 nM |
| Cc1cccc(N2CCN(C(=O)Cn3nc(C(=O)N4CCC5(CC4)COC(CO)C5)c4c3C[C@H]3C[C@@H]43)CC2)c1C (stereo partly drawn) [Example 275, 1-[4-(2,3-dimethylphenyl)piperazin-1-yl]-2-{(3bR,4aR)-3-[3-(hydroxymethyl)-2-oxa-8-azaspiro[4.5]decane-8-carbonyl]-3b,4,4a,5-tetrahydro-1H-cyclopropa[3,4]cyclopenta[1,2-c]pyrazol-1-yl}ethan-1-one] | 0.8 nM |
| Cc1cccc(N2CCN(C(=O)Cn3nc(C(=O)N4CCC(NC(=O)OC(C)(C)C)CC4)c4c3CCCC4)CC2)c1C [Example 469, tert-butyl (1-(1-(2-(4-(2,3-dimethylphenyl)piperazin-1-yl)-2-oxoethyl)-4,5,6,7-tetrahydro-1H-indazole-3-carbonyl)piperidin-4-yl) carbamate] | 2.48 nM |
| Cc1cccc(N2CCN(C(=O)Cn3nc(C(=O)N4CCCC(N(C)C)C4)c4c3CCC4)CC2)c1C (centres unmarked) [Example 186, 2-{3-[3-(dimethylamino)piperidine-1-carbonyl]-5,6-dihydrocyclopenta[c]pyrazol-1(4H)-yl}-1-[4-(2,3-dimethylphenyl)piperazin-1-yl]ethan-1-one] | 37.9 nM |
| Cc1cccc(N2CCN(C(=O)Cn3nc(C(=O)N4CCC(NC(N)=O)CC4)c4c3C[C@H]3C[C@@H]43)CC2)c1C [Example 255, N-{1-[(3bR,4aR)-1-{2-[4-(2,3-dimethylphenyl)piperazin-1-yl]-2-oxoethyl}-3b,4,4a,5-tetrahydro-1H-cyclopropa[3,4]cyclopenta[1,2-c]pyrazole-3-carbonyl]piperidin-4-yl}urea] | 13.1 nM |
| Cc1cccc(N2CCN(C(=O)Cn3nc(C(=O)N4CCC(C)(CO)CC4)c4c3C[C@H]3C[C@@H]43)CC2)c1C [Example 248, 1-[4-(2,3-dimethylphenyl)piperazin-1-yl]-2-{(3aR,4aR)-3-[4-(hydroxymethyl)-4-methylpiperidine-1-carbonyl]-3b,4,4a,5-tetrahydro-1H-cyclopropa[3,4]cyclopenta[1,2-c]pyrazol-1-yl}ethan-1-one] | 0.7 nM |
